# Experiments:
# Assay in all cases: relative viability (nuclei count vs DMSO), 5 days (fraction); higher = more cells survive
# [1] = compound: C1CNCCC1C2=CC(=NN2)C3=CC=NC=C3 + Cc1cc(Nc2cc(N3CCN(C)CC3)nc(Sc3ccc(NC(=O)C4CC4)cc3)n2)n[nH]1 [Tozasertib] (partner 0.1 µM)
# Outline: (§1)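 Relative viability divides the nuclei count in treated wells by that in vehicle wells. Lung cancer cell lines were seeded in 1536-well plates, dosed by pin tool the next day, and fixed and stained after 5 days in one step with final 0.05% Triton X-100, 1% formaldehyde and 1 ug/ml Hoechst. Dosing was a single drug or a fixed anchor-drug dose plus five library-drug doses (not always all listed) in √10 steps, and values are medians of duplicate plates imaged at 4×.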
# [2] = compound: C[C@@H](N)c1ccc(C(=O)Nc2ccnc3[nH]ccc23)cc1 + C[C@]1(O)C[C@@H](c2nc(-c3ccc4ccc(-c5ccccc5)nc4c3)c3c(N)nccn32)C1 [Linsitinib] (partner 1 µM)
# Outline: as §1
# [3] = compound: C[C@@H](N)c1ccc(C(=O)Nc2ccnc3[nH]ccc23)cc1 + N=C(N)NC(=N)NCCc1ccccc1 [Phenformin] (partner 250 µM)
# Outline: as §1
# [4] = compound: C1CNCCC1C2=CC(=NN2)C3=CC=NC=C3 + O=C(c1cc(Cc2n[nH]c(=O)c3ccccc23)ccc1F)N1CCN(C(=O)C2CC2)CC1 [Olaparib] (partner 8 µM)
# Outline: as §1
Cell Line,relative viability ([1]; first compound 0.08 µM),relative viability ([1]; first compound 0.8 µM),relative viability ([1]; first compound 2.53 µM),relative viability ([1]; first compound 8 µM),relative viability ([2]; first compound 0.04 µM),relative viability ([2]; first compound 0.1265 µM),relative viability ([2]; first compound 0.4 µM),relative viability ([2]; first compound 1.265 µM),relative viability ([2]; first compound 4 µM),relative viability ([3]; first compound 0.04 µM),relative viability ([3]; first compound 0.1265 µM),relative viability ([3]; first compound 0.4 µM),relative viability ([3]; first compound 1.265 µM),relative viability ([3]; first compound 4 µM),relative viability ([4]; first compound 0.08 µM),relative viability ([4]; first compound 0.8 µM),relative viability ([4]; first compound 2.53 µM),relative viability ([4]; first compound 8 µM)
NCI-H1666,0.59,0.7,0.693,0.755,0.849,1.04,1.01,1.12,0.966,0.534,0.603,0.651,0.631,0.561,0.704,0.768,0.806,0.745
NCI-H1915,0.475,0.435,0.451,0.438,1.1,1.13,1.12,,1.03,0.289,0.37,0.38,,0.319,0.265,0.272,0.269,0.25
NCI-H2009,0.713,0.74,0.689,0.696,1.21,1.06,1.01,0.966,0.709,0.473,0.531,0.468,0.443,0.435,0.683,0.749,0.648,0.728
ChaGo-K-1,0.237,0.223,0.232,0.216,,,,,,0.495,0.493,0.46,0.346,0.507,0.546,0.426,0.435,0.362

# Source: the supplement of paper PMC10307832
